Reference: patent US20050192261A1, “Methods and reagents for the treatment of immunoinflammatory disorders” (priority 2003, published 2005)
Where a name gives a salt, the structure may show the parent alone. Read-outs that look alike come from different tables or passages of the source.

Test system: TNFα secretion in white blood cells from human buffy coat stimulated with phorbol 12-myristate 13-acetate and ionomycin
Test: TNFα secretion assay
Settings: for inhibition at 2 µM: read-out: % inhibition of TNFα secretion, Ibudilast 2 μM; for inhibition at 4 µM: read-out: % inhibition of TNFα secretion, Ibudilast 4 μM; for inhibition at 8 µM: read-out: % inhibition of TNFα secretion, Ibudilast 8 μM
[1] = Homo sapiens, Bromodiphenhydramine HCl μM r5-r13: 0,0.21,0.43,0.85,1.7,3.4,6.8,14,27
[2] = Homo sapiens, Cyproheptadine HCl μM r5-r12: 0,0.24,0.48,0.96,1.9,3.9,7.7,15
[3] = Homo sapiens, Loratadine μM r5-r13: 0,0.2,0.41,0.82,1.6,3.3,6.5,13,26
[4] = Homo sapiens, Thiethylperazine Maleate μM r5-r13: 0,0.2,0.39,0.78,1.6,3.1,6.3,13,25

Protocol: Drugs were added to the indicated concentration. […] The plate was then washed again with 0.1% Tween 20/PBS. An HRP-luminescent substrate was added to each well, and the light intensity of each well was measured using a plate luminometer.

Q: With `COc1ccc(C2CNC(=O)C2)cc1OC1CCCC1` (centres unmarked) [Rolipram] as the compound, how does the inhibition at 0.5 µM (Homo sapiens, read-out: % inhibition of TNFα secretion, Rolipram 0.5 μM, Bromodiphenhydramine HCl μM r5-r13: 0,0.21,0.43,0.85,1.7,3.4,6.8,14,27) read?
A: 37%

Q: And the inhibition at 0.5 µM (Homo sapiens, read-out: % inhibition of TNFα secretion, Rolipram 0.5 μM, Cyproheptadine HCl μM r5-r13: 0,0.24,0.48,0.96,1.9,3.9,7.7,15,31)?
A: 44%

Q: What about the inhibition at 0.5 µM (Homo sapiens, read-out: % inhibition of TNFα secretion, Rolipram 0.5 μM, Loratadine μM r5-r13: 0,0.2,0.41,0.82,1.6,3.3,6.5,13,26) of the same compound?
A: 43%

Q: What about the inhibition at 0.5 µM (Homo sapiens, read-out: % inhibition of TNFα secretion, Rolipram 0.5 μM, Thiethylperazine Maleate μM r5-r13: 0,0.2,0.39,0.78,1.6,3.1,6.3,13,25) of the same compound?
A: 38%

Q: And the inhibition at 1 µM (Homo sapiens, read-out: % inhibition of TNFα secretion, Rolipram 1 μM, Bromodiphenhydramine HCl μM r5-r13: 0,0.21,0.43,0.85,1.7,3.4,6.8,14,27)?
A: 44%

Q: What about the inhibition at 1 µM (Homo sapiens, read-out: % inhibition of TNFα secretion, Rolipram 1 μM, Cyproheptadine HCl μM r5-r13: 0,0.24,0.48,0.96,1.9,3.9,7.7,15,31) of the same compound?
A: 38%

Q: And the inhibition at 1 µM (Homo sapiens, read-out: % inhibition of TNFα secretion, Rolipram 1 μM, Loratadine μM r5-r13: 0,0.2,0.41,0.82,1.6,3.3,6.5,13,26)?
A: 50%

Q: What about the inhibition at 1 µM (Homo sapiens, read-out: % inhibition of TNFα secretion, Rolipram 1 μM, Thiethylperazine Maleate μM r5-r13: 0,0.2,0.39,0.78,1.6,3.1,6.3,13,25) of the same compound?
A: 39%

Q: With `CC(C)(C(=O)O)c1ccc(C(O)CCCN2CCC(C(O)(c3ccccc3)c3ccccc3)CC2)cc1` (centres unmarked) [Fexofenadine HCl] as the compound, how does the “inhibition of TNFα secretion” value (prednisolone 0.5 μM, fexofenadine HCl r5-r13: 0,0.073,0.15,0.29,0.58,1.2,2.3,4.6,9.3 μM) read?
A: 50

Q: For `CC(C)C(=O)c1c(C(C)C)nn2ccccc12` [Ibudilast], which inhibition at 0.5 µM (Homo sapiens, read-out: % inhibition of TNFα secretion, Ibudilast 0.5 μM, Bromodiphenhydramine HCl μM r5-r13: 0,0.21,0.43,0.85,1.7,3.4,6.8,14,27) is on record?
A: 19%

Q: And the inhibition at 0.5 µM (Homo sapiens, read-out: % inhibition of TNFα secretion, Ibudilast 0.5 μM, Cyproheptadine HCl μM r5-r12: 0,0.24,0.48,0.96,1.9,3.9,7.7,15)?
A: 20%

Q: What about the inhibition at 0.5 µM (Homo sapiens, read-out: % inhibition of TNFα secretion, Ibudilast 0.5 μM, Loratadine μM r5-r13: 0,0.2,0.41,0.82,1.6,3.3,6.5,13,26) of the same compound?
A: 21%

Q: And the inhibition at 0.5 µM (Homo sapiens, read-out: % inhibition of TNFα secretion, Ibudilast 0.5 μM, Thiethylperazine Maleate μM r5-r13: 0,0.2,0.39,0.78,1.6,3.1,6.3,13,25)?
A: 23%

Q: What about the inhibition at 1 µM (Homo sapiens, read-out: % inhibition of TNFα secretion, Ibudilast 1 μM, Bromodiphenhydramine HCl μM r5-r13: 0,0.21,0.43,0.85,1.7,3.4,6.8,14,27) of the same compound?
A: 24%

Q: And the inhibition at 1 µM (Homo sapiens, read-out: % inhibition of TNFα secretion, Ibudilast 1 μM, Cyproheptadine HCl μM r5-r12: 0,0.24,0.48,0.96,1.9,3.9,7.7,15)?
A: 23%

Q: What about the inhibition at 1 µM (Homo sapiens, read-out: % inhibition of TNFα secretion, Ibudilast 1 μM, Loratadine μM r5-r13: 0,0.2,0.41,0.82,1.6,3.3,6.5,13,26) of the same compound?
A: 32%

Q: What about the inhibition at 1 µM (Homo sapiens, read-out: % inhibition of TNFα secretion, Ibudilast 1 μM, Thiethylperazine Maleate μM r5-r13: 0,0.2,0.39,0.78,1.6,3.1,6.3,13,25) of the same compound?
A: 27%

Q: What about the inhibition at 2 µM [1] of the same compound?
A: 36%

Q: What about the inhibition at 2 µM [2] of the same compound?
A: 32%

Q: And the inhibition at 2 µM [3]?
A: 35%

Q: What about the inhibition at 2 µM [4] of the same compound?
A: 38%

Q: What about the inhibition at 4 µM [1] of the same compound?
A: 43%

Q: What about the inhibition at 4 µM [2] of the same compound?
A: 36%

Q: And the inhibition at 4 µM [3]?
A: 39%

Q: What about the inhibition at 4 µM [4] of the same compound?
A: 42%

Q: And the inhibition at 8 µM [1]?
A: 41%

Q: What about the inhibition at 8 µM [2] of the same compound?
A: 41%

Q: What about the inhibition at 8 µM [3] of the same compound?
A: 43%

Q: And the inhibition at 8 µM [4]?
A: 48%

Q: Which inhibition at 14 µM (Homo sapiens, read-out: percent inhibition of TNFα secretion, Bromodiphenhydramine HCl 14 μM, Fluoxetine HCl μM: 0/0.23/0.45/0.9/1.8/3.6/7.2/14/29) does the source give for `CN(C)CCOC(c1ccccc1)c1ccc(Br)cc1` (centres unmarked) [Bromodiphenhydramine HCl, bromodiphenhydramine] here?
A: 39%

Q: And the inhibition at 27 µM (Homo sapiens, read-out: percent inhibition of TNFα secretion, Bromodiphenhydramine HCl 27 μM, Fluoxetine HCl μM: 0/0.23/0.45/0.9/1.8/3.6/7.2/14/29)?
A: 65.2%

Q: And the “percent inhibition of TNFα secretion” value (Nortryptyline HCl 0 μM (Bromodiphenhydramine HCl alone), Bromodiphenhydramine HCl μM: 0/0.21/0.43/0.85/1.7/3.4/6.8/14/27)?
A: −15
